Test results taken from publication PMC8799717, “Pharmacological targeting PIKfyve and tubulin as an effective treatment strategy for double-hit lymphoma” (Cell Death Discovery, 2022).

Legend:
Assay in all cases: biochemical
Parameters in all cases: KINOMEscan active-site-directed competition binding panel, 468 kinases, percent of DMSO control at 1 uM
Settings in all cases: KINOMEscan binding, percent of DMSO control; read-out: Ctrl%
[1] = target: BRAF(V600E) (Homo sapiens, UniProt P15056, V600E)
[2] = target: GRK7 (Homo sapiens, UniProt Q8WTQ7)
[3] = target: ERBB2 (Homo sapiens, UniProt P04626)
[4] = target: T1, MLK2 (Homo sapiens, UniProt Q02779)
T1 construct: gene MAP3K10

[5] = target: NEK9 (Homo sapiens, UniProt Q8TD19)
[6] = target: T2, DRAK1 (Homo sapiens, UniProt Q9UEE5)
T2 construct: gene STK17A

[7] = target: T3, ADCK3 (Homo sapiens, UniProt Q8NI60)
T3 construct: gene COQ8A

[8] = target: TAOK3 (Homo sapiens, UniProt Q9H2K8)
[9] = target: RIOK2 (Homo sapiens, UniProt Q9BVS4)
[10] = target: T4, TAK1 (Homo sapiens, UniProt O43318)
T4 construct: gene MAP3K7

[11] = target: KIT-autoinhibited (Homo sapiens, UniProt P10721)
[12] = target: PIK3CA(I800L) (Homo sapiens, UniProt P42336, I800L)
Sequence of PIK3CA(I800L) (P42336 whole entry I800L): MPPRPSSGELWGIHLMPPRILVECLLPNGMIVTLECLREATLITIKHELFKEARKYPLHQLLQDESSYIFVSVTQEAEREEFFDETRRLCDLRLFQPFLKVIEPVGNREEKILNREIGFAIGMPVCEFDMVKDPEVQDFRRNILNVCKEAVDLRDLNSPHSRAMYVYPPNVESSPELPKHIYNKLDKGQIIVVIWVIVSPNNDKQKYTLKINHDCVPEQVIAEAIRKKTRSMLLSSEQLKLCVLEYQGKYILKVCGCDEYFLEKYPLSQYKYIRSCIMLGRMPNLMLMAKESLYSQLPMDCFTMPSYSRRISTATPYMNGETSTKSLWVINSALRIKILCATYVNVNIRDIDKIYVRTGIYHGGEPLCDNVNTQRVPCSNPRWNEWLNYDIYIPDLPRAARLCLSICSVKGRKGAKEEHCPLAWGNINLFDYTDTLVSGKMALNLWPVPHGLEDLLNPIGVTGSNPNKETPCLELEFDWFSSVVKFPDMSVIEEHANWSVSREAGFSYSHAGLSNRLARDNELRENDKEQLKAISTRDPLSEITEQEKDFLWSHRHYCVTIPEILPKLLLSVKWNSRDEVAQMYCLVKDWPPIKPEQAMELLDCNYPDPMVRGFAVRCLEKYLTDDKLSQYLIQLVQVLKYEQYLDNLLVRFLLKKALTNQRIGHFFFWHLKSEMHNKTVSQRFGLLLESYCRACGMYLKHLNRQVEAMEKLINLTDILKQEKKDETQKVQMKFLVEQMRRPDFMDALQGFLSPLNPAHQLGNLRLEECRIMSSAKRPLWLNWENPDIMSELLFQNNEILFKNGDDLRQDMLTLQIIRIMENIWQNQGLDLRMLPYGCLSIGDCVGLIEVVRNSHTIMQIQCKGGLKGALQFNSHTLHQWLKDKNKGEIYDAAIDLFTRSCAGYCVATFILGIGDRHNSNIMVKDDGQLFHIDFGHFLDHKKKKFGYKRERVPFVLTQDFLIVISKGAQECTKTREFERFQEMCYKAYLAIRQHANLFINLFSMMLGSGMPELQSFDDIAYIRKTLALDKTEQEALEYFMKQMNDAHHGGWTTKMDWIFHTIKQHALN

[13] = target: NEK1 (Homo sapiens, UniProt Q96PY6)
[14] = target: WNK2 (Homo sapiens, UniProt Q9Y3S1)
Sequence of WNK2 (Q9Y3S1 whole entry): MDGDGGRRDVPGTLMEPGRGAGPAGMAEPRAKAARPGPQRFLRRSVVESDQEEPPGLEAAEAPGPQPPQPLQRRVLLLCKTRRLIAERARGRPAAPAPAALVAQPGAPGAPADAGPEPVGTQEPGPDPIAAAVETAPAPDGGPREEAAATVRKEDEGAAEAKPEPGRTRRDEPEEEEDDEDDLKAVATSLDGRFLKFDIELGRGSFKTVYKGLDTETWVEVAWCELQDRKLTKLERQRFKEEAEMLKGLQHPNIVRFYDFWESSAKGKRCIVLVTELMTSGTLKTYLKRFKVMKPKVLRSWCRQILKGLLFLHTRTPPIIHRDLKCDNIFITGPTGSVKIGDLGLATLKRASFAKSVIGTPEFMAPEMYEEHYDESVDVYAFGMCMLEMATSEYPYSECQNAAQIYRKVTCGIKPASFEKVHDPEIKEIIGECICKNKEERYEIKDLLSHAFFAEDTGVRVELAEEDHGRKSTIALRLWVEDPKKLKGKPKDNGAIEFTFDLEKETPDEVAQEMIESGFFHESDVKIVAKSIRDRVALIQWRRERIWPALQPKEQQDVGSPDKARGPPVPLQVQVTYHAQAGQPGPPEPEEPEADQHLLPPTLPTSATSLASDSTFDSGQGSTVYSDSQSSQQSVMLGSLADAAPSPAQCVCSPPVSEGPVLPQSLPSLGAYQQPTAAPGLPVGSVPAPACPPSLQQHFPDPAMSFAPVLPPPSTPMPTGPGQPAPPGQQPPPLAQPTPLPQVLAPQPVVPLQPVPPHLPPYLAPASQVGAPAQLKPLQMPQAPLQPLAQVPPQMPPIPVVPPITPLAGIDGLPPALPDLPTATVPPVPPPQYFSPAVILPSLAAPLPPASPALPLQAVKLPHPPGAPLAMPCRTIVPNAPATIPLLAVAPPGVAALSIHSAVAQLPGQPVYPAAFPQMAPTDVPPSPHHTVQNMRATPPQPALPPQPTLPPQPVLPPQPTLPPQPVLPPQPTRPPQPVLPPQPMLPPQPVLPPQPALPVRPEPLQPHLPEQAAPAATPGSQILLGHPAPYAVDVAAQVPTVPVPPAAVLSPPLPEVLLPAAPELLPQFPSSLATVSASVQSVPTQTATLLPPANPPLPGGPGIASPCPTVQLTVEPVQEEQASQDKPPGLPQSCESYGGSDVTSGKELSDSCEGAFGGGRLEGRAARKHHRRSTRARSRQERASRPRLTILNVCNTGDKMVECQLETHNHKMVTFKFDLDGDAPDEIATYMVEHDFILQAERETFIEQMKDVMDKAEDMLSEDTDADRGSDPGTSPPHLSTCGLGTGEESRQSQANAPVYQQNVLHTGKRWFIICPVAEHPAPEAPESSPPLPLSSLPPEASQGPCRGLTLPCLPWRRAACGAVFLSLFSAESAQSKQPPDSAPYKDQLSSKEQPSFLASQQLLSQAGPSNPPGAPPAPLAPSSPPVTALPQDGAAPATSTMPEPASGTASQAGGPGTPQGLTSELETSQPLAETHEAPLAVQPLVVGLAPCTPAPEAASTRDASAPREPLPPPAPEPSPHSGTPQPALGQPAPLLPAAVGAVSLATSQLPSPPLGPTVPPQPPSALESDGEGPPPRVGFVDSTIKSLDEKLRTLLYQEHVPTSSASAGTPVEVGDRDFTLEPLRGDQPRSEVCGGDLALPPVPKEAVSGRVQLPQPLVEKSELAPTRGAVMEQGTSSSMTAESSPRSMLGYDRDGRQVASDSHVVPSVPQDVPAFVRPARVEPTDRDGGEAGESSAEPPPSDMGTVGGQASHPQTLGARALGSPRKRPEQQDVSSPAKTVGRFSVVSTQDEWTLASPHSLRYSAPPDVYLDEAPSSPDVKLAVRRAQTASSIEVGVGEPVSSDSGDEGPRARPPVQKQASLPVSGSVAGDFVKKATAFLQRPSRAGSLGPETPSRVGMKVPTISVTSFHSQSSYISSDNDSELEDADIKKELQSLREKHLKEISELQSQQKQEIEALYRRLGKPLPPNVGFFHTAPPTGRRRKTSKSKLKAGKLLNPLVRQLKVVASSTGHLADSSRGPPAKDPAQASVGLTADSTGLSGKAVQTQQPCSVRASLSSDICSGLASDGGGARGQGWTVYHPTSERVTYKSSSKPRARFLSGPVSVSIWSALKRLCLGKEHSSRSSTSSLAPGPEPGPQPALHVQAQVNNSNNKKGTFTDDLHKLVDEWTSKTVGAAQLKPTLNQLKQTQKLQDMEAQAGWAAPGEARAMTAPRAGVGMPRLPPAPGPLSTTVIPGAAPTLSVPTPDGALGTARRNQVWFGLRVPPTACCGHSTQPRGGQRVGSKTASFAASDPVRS

[15] = target: T5, MINK (Homo sapiens, UniProt Q8N4C8)
T5 construct: gene MINK1

[16] = target: T6, ABL1(F317L)-phosphorylated (Homo sapiens, UniProt P00519, F317L)
T6 construct: phosphorylated
T6 sequence (P00519 whole entry F317L): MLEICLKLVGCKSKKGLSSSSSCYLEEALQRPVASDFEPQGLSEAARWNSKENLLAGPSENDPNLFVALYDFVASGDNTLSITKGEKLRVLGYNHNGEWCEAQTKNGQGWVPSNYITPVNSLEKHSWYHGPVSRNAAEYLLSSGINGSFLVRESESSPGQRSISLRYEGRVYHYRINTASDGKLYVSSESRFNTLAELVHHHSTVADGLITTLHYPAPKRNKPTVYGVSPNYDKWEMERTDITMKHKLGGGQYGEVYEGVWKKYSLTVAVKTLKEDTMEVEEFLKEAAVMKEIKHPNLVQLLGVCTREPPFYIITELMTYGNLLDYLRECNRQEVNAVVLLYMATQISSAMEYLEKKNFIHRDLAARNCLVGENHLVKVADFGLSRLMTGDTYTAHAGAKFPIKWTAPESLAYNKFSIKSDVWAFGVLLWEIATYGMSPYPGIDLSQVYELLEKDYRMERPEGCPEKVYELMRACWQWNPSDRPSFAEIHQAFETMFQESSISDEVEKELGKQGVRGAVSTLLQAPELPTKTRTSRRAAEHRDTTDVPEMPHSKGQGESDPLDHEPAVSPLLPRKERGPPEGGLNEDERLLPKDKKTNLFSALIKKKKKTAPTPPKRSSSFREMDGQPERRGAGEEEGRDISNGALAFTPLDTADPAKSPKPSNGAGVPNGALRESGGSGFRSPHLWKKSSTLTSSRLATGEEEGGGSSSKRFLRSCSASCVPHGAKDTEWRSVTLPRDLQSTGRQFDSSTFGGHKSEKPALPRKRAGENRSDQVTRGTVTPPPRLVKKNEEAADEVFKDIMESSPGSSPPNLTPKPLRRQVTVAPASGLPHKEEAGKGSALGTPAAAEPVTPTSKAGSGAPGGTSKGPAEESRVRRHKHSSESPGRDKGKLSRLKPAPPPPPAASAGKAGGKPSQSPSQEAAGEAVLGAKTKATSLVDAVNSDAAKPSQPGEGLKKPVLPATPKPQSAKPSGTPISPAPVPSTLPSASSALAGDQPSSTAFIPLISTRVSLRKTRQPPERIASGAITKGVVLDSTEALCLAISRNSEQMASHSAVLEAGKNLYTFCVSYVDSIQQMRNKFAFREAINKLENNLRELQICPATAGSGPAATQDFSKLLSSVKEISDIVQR

[17] = target: NLK (Homo sapiens, UniProt Q9UBE8)
[18] = target: SRPK1 (Homo sapiens, UniProt Q96SB4)
[19] = target: TYRO3 (Homo sapiens, UniProt Q06418)
[20] = target: TLK2 (Homo sapiens, UniProt Q86UE8)
[21] = target: T7, ABL1(E255K)-phosphorylated (Homo sapiens, UniProt P00519, E255K)
T7 construct: phosphorylated
T7 sequence (P00519 whole entry E255K): as the sequence (P00519 whole entry F317L) above, with E255K, L317F counted along it

[22] = target: T8, ERK5 (Homo sapiens, UniProt Q13164)
T8 construct: gene MAPK7

[23] = target: T9, MKK7 (Homo sapiens, UniProt O14733)
T9 construct: gene MAP2K7
T9 sequence (O14733 whole entry): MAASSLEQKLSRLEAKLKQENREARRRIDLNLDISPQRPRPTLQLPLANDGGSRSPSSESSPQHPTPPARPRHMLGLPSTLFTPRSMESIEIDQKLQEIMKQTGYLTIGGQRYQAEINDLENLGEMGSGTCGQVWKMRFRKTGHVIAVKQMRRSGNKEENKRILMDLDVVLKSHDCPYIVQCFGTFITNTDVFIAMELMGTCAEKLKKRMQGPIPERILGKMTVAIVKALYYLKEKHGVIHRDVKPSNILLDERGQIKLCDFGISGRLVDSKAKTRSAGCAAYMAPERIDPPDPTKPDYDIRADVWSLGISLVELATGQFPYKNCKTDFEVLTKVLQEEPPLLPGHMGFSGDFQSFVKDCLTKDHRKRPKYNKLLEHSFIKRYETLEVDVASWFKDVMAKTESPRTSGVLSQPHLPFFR

[24] = target: ULK1 (Homo sapiens, UniProt O75385)

## Cc1ccc(NC(=O)c2cccc(C(F)(F)F)c2)cc1Nc1cc(-c2cccnc2)nc2[nH]ccc12 [HZX-02-059]
[1]
  remaining binding at 1 µM: 4.5%
[2]
  remaining binding at 1 µM: 80%
[3]
  remaining binding at 1 µM: 95%
[4]
  remaining binding at 1 µM: 97%
[5]
  remaining binding at 1 µM: 71%
[6]
  remaining binding at 1 µM: 83%
[7]
  remaining binding at 1 µM: 97%
[8]
  remaining binding at 1 µM: 100%
[9]
  remaining binding at 1 µM: 91%
[10]
  remaining binding at 1 µM: 73%
[11]
  remaining binding at 1 µM: 88%
[12]
  remaining binding at 1 µM: 81%
[13]
  remaining binding at 1 µM: 78%
[14]
  remaining binding at 1 µM: 100%
[15]
  remaining binding at 1 µM: 91%
[16]
  remaining binding at 1 µM: 65%
[17]
  remaining binding at 1 µM: 100%
[18]
  remaining binding at 1 µM: 95%
[19]
  remaining binding at 1 µM: 100%
[20]
  remaining binding at 1 µM: 89%
[21]
  remaining binding at 1 µM: 77%
[22]
  remaining binding at 1 µM: 99%
[23]
  remaining binding at 1 µM: 95%
[24]
  remaining binding at 1 µM: 97%
